Assay: In vivo elution of minocycline from the implant device
Conditions: within 72 hours
Protocol: The final implant device prepared above was pressed onto a silicone-release liner under normal ambient conditions (30-40% relative humidity). The implant device was vacuum sealed in foil pouches (with argon backflow) in a dry room (<20% relative humidity). The implant device was sterilized using 22-28 kGy of gamma radiation at a slow dose rate of 4-6 kGy/hour. Gamma irradiation was performed on dry ice, but can also be performed at ambient temperature. The bioactive agent content of the implant device was within +/−10% of the target dose. Greater than 80% minocycline eluted in vivo within 72 hours.

CN(C)c1ccc(O)c2c1C[C@H]1C[C@H]3[C@H](N(C)C)C(O)=C(C(N)=O)C(=O)[C@@]3(O)C(O)=C1C2=O [Minocycline]
minocycline eluted in vivo: Greater than 80%

From patent publication US9598532B2, “Terpolymers as pressure-sensitive adhesives” (Surmodics, Inc., priority 2010, dated 2017)
